US9072751B2, “Na/K-ATPase ligand” (priority 2006, dated 2015)

Key:
[1] = Plasma MBG and aldosterone 4 weeks after MBG minipump infusion in rats; type: in vivo, Sprague-Dawley rats; conditions: mean ± SEM
Experimental: Male, Sprague-Dawley rats were used for all of the studies. All of the animal experimentation described in the article was conducted in accordance with the National Institutes of Health Guide for the Care and use of Laboratory Animals using protocols approved by the Medical University of Ohio Institutional Animal Use and Care Committee.
Briefly, Sprague-Dawley rats weighing.apprxeq.250 g at the time of surgery were subjected to either sham surgery with no MBG infusion (Sham), sham surgery with placement of a minipump infusing MBG at 10 μg/kg per day (MBG), PNx, and PNx after immunization against MBG (PNx-IM). MBG of extremely high purity (>99%) was isolated from the venom of Bufa marinas by Kennedy et al. In addition to these maneuvers, a group of PNx animals was subjected to adrenalectomy as well (PNx-ADx).
(determined after extraction on a C-18 column using DELPHIA as described previously), aldosterone (determined with ELISA kit 10004377, Cayman Chemical) and cardiac immunohistochemistry (vida infra) were assessed 4 weeks after surgery.

[2] = system: isolated cardiac fibroblasts; assay: Collagen-1 mRNA by standardized RT-PCR in cardiac fibroblasts; type: cell-based, rat; conditions: 24 hours, 10 nM
Experimental: Standardized RT-PCR was used to measure gene expression, with GAPDH transcript used as the housekeeping gene, as reported previously.
To further examine the molecular basis of this cardiac fibrosis, isolated cardiac fibroblasts were subjected to increase doses of MBG (10^−10, 10^−9, and 10^−8 M). […] Using collagenase digestion, we observed that the vast majority of the proline incorporation was into collagen. Using standardized RT-PCR, we observed a doubling of mRNA for collagen-1 at 24 hours in response to 10 nM of MBG.
Representative Western blot for procollagen and quantitative densitometric data obtained in response to different doses of (a) MBG (all N=10), (b) MBG 10 nM contrasted with different doses of ouabain (0.1 to 100 nM) and digoxin (10 nM; all N=8). c, ouabain sensitive Rb uptake as a function of MBG and ouabain concentration (N=4 at each concentration for both MBG and ouabain; data expressed as fraction of control). d, relative proline incorporation in the supernatant and matrix, both will and without collagenase digestion (total). Each group (controls and different doses of MBG) contains N=7 replicants. The difference between the total and after collagenase digestion is reported as collagen. […] Bars on quantitative graphs represent the mean.+−.SEM. *P<0.05 and **P<0.01 vs control.

[3] = system: SYF cells; assay: Procollagen expression in SYF cells; type: cell-based; conditions: MBG 10 nM
Description: (§1) To examine whether cardiotronic steroids induced collagen synthesis by signaling through the Na/K-ATPase, we performed the following studies. First, we used pharmacological antagonism at several steps in the Na/K-ATPase cascade. Specifically, we used pharmacological antagonism of Src activation with PP2, nonspecific tyrosine kinase inhibition with herbimycin, inhibition of EGFR transactivation with AG1478, and nonspecific antioxidant administration with N-acetyle cysteine. […] Next we performed studies in the SYF and SYF+ cells (details available in the online supplement).
(§2) The effects of PP2 (1 μmol/L), herbimycin (1 μmol/L), AG1478 (250 nM), and N-acetyl cysteine (2.5 mmol/L) on MBG (10 nM) stimulation of procollagen expression also were found. The PP2, herbimycin AG1478, and N-acetyl cysteine were administered from 2 hours before the addition of MBG and continued throughout the 24 hours of MBG incubation (total of 26 hours). Each bar represents the mean.+−.SEM of n=8 experiments. b, effects of PP2 (1 μmol/L) and N-acetyle cysteine (2.5 mmol/L) on MBG (10 nM)-stimulated proline incorporation into collagen. Again, the PP2 an N-acetyl cysteine were added 2 hours before exposure to MBG. Each bar represents the mean.+−.SEM of N=5 experiments. c, effects of MBG 10 nM on procollagen content in SYF and SYF+ cells. Representative Western blots are shown above quantitative data. […]

[4] = system: SYF+ cells; assay: Procollagen expression in SYF+ cells; type: cell-based; conditions: MBG 10 nM
Description: as §1, §2

Q: With C[C@]12CC[C@H](O)C[C@@]1(O)CC[C@@H]1[C@@H]2CC[C@]2(C)[C@@H](c3ccc(=O)oc3)C[C@H]3O[C@]132 [MBG, marinobufagenin] as the compound, how does the “Plasma MBG” value ([1]; MBG infusion 10 μg/kg per day by minipump) read?
A: 484 ± 47 pmol/L

Q: What about the Plasma aldosterone ([1]; MBG infusion 10 μg/kg per day) of the same compound?
A: 205 ± 35 pg/mL

Q: What about the “mRNA for collagen-1” value [2] of the same compound?
A: doubling

Q: And the “Response of procollagen expression in SYF cells” value [3]?
A: essentially no response

Q: And the “Upregulation of procollagen expression in SYF+ cells” value [4]?
A: very similar way as the primary cardiac fibroblast cultures
